Laboratory results as given in patent US8022235B2, “Compositions of phospholipid ether boronic acids and esters and methods for their synthesis and use” (Cellectar, Inc., priority 2007, dated 2011).
Entries after “also recorded” stand apart in the source; their conditions may differ.

Assays:
Colon LS-180 = assay: Imaging and tissue distribution, tumor model; type: in vivo, Nude Mouse; details: Adenocarcinoma
Liver CT-26 = assay: Imaging and tissue distribution, tumor model; type: in vivo, Mouse xenograft; details: Colorectal adenocarcinoma
Subcutaneous CT-26 = assay: Imaging and tissue distribution, tumor model; type: in vivo, Mouse xenograft; details: Colorectal adenocarcinoma
Description: (§4) Imaging and tissue distribution studies performed in mouse models aimed at determining the uptake characteristics in a wide variety of tumor models are summarized in Table 1, below.

[1] = Toxicology studies of unlabeled NM404 in rats; type: in vivo; details: for toxic effects: 14 days observation
Description: (§1) In preparation for human clinical trials, unlabeled NM404 was subjected to independent (University of Buffalo Toxicology Research Center) acute toxicity evaluation at 1200 times the anticipated imaging mass dose in rats and rabbits. […] Due to its selective tumor uptake and retention properties in a variety of rodent tumor models and subsequent excellent safety profile in rats and rabbits, NM404 was selected to undergo initial human pharmacokinetic evaluation in non-small cell lung cancer (NSCLC) patients. Patients underwent planar gamma-camera scintigraphy after receiving an injection of ^131I-NM404 (<1 mCi).
(§2) Formal toxicology studies of NM404 in male rats and rabbits were performed at the Toxicology Research Center of the State University of New York at Buffalo under the direction of Dr. Paul Kostyniak. Drug vehicle and drug product were provided to Dr. Kostyniak by Dr. Raymond Counsell of the University of Michigan for testing as described in the appended synopses of Study 27 and Study 28. […] Human safety studies of unlabeled NM404 were initiated in normal male humans at a mass of 10 times the anticipated imaging dose and about 21 times the anticipated therapy dose. […] This toxicology study was performed under GLP conditions.
(§3) Subsequently, the inventors initiated a toxicology study of unlabeled NM404 in female rats and rabbits (Study 31 and Study 32) at the Toxicology Research Center at SUNY-Buffalo in order to expand the patient population to be studied in the NSCLC Phase 1 clinical trial. […] Human safety studies of unlabeled NM404 were initiated in normal female humans at a mass of 10 times the initially anticipated imaging dose and about 21 times the anticipated therapy dose. […] This toxicology study was performed under GLP conditions.

Adrenal RL-251 = assay: Imaging and tissue distribution, tumor model; type: in vivo, SCID Mouse
animal tumor models [2] = assay: Imaging and biodistribution across animal tumor models (general statements)
Description: See, for example, U.S. patent application Ser. Nos. 10/906,687, 11/177,740, 11/316,620 and 11/382,645. Due to deficiencies in metabolic phospholipase enzymes in the membranes of malignant tumor cells, the prevailing hypothesis for this specificity is that phospholipid ether analogs become trapped exclusively in tumor cell membranes because of their inability to become metabolized and eliminated by the cancerous cell. Thus, the differential clearance rates of phospholipid ethers from normal cells versus neoplastic tumor cells are responsible for this specificity.
The reason for the retention of PLE and analogs in cancer cells remains unknown. Without being held to any particular theory, however, the prevailing hypothesis, is that radioiodinated PLE and APC analogs become trapped in tumor cell membranes because of their inability to be metabolized and eliminated. On the other hand, such lipid molecules are metabolized and cleared by normal tissues, including the liver.
These PLE analogs are specifically designed to incorporate aromatic radioiodine in order to render the molecule stable towards in vivo deiodination.

albumin fraction = target: T1, albumin fraction (Rattus norvegicus, UniProt P02770); assay: PAGE analysis of plasma radioactivity distribution after iodine-125 labeled 1; type: in vivo, Walker-256 tumor-bearing rats; details: plasma 7 days after administration
T1 construct: plasma was isolated from Walker-256 tumor-bearing rats; from tissue; host or cells: plasma of Walker-256 tumor-bearing rats
T1 sequence (P02770 25-608): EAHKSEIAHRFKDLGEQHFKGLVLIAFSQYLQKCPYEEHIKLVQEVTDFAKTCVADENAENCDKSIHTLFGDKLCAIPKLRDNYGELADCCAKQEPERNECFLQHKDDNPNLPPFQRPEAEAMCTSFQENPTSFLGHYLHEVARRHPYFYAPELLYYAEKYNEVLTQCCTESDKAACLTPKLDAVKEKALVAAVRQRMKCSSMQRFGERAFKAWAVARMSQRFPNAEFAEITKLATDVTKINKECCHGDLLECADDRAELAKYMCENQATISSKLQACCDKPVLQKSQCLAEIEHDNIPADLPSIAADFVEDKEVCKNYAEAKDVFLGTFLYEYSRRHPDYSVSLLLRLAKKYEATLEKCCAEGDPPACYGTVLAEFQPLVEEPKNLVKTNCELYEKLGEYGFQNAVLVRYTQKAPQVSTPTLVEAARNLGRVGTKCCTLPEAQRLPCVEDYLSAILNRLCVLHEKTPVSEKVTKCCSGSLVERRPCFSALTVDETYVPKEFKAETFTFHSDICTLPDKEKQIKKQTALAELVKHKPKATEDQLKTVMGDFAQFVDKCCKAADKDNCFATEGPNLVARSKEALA
Description: In order to examine the transport properties of PLE analogs, plasma was isolated from Walker-256 tumor-bearing rats 7 days after administration of iodine-125 labeled 1. The distribution of radioactivity in the plasma compartment of a rat receiving 1 (NM404) was studied.

animal tumor models [3] = details: radioiodinated analogs, xenograft and spontaneous tumor rodent models, previous reports; cited from earlier work
[4] = system: spontaneous murine lung tumors; assay: Bioscan imaging of spontaneous lung tumor; type: in vivo, ApcMin mouse; details: 125I-NM404, image 4 days post injection, 2 mm tumor
Adrenal H-295 = assay: Imaging and tissue distribution, tumor model; type: in vivo, SCID Mouse; details: Adenocarcinoma
Melanoma = assay: Imaging and tissue distribution, tumor model; type: in vivo, Mouse xenograft; details: Adenocarcinoma
Description: as §4

Melanoma A-375 = assay: Imaging and tissue distribution, tumor model; type: in vivo, Nude Mouse; details: Adenocarcinoma
[5] = Human safety studies of unlabeled NM404; type: in vivo; details: normal male humans, mass of 10 times the anticipated imaging dose
Method: as §2

Hepatocellular Carcinoma = assay: Imaging and tissue distribution, tumor model; type: in vivo, Spontaneous TGF-α mouse; details: Adenocarcinoma
Description: as §4

[6] = Toxicology studies of unlabeled NM404 in rabbits; type: in vivo; details: for toxic effects: 14 days observation
Description: as §1, §2, §3

SCC1 and 6 = assay: Imaging and tissue distribution, tumor model; tumor regression; type: in vivo; details: Squamous cell carcinoma
Description: During the course of mouse tumor uptake and retention studies with “imaging” doses (15-20 μCi/20 g mouse) of ^125I-labeled NM404, several apparent therapeutic responses have been observed (unpublished results). […] Some of these animals also lost all hair above larger mammary tumors at around 8 days after injection. Moreover, these mice also get intestinal tumors and usually suffer from intestinal bleeding resulting in severe anemia, which renders their feet white. […] Another compelling example of tumor regression is illustrated in FIG. 13. Two litter mates each received SCC1 and SCC6 xenografts in their left and right flanks, respectively. One mouse received a single injection of ^125I-NM404 (20 μCi). […] These coincidental findings were reconfirmed in two separate age-matched groups each involving more than 6 mice.

[7] = 1200 times the anticipated imaging mass dose

Q: With `C[N+](C)(C)CCOP(=O)([O-])OCCCCCCCCCCCCCCCCCCc1ccc(I)cc1` [NM404, 18-(p-iodophenyl)-octadecyl phosphocholine] as the compound, how does the Uptake (Colon LS-180) read?
A: Yes

Q: And the Uptake (Liver CT-26)?
A: Yes

Q: And the Uptake (Subcutaneous CT-26)?
A: Yes

Q: What about the acute toxicity [1, 7] of the same compound?
A: well tolerated and no acute toxicities were found

Q: What about the toxic effects ([1]; female rats, single dose 0.04 mg/kg, Study 31, GLP) of the same compound?
A: No significant toxic effects

Q: What about the toxic effects ([1]; male rats, single dose 4 mg/kg, Study 27, GLP) of the same compound?
A: No significant toxic effects

Q: What about the Uptake (Adrenal RL-251; Adenocarcinoma) of the same compound?
A: Yes

Q: And the tumor retention (Adrenal RL-251; human adrenal tumor xenograft, FIG. 7)?
A: Prolonged tumor retention

Q: And the “tumor concentrations over time” value (animal tumor models [2]; following administration)?
A: almost stable for many weeks

Q: What about the “elimination from normal tissue” value (animal tumor models [2]; in vivo) of the same compound?
A: eliminated from normal tissue within a few days

Q: And the tumor retention (animal tumor models [2]; over 27 animal tumor models, every model and tumor type studied)?
A: tumor-selective retention

Q: What about the tumor selectivity (animal tumor models [2]; radioiodinated, 37 of 37 models investigated) of the same compound?
A: remarkable tumor selectivity

Q: What about the “uptake into the tumor tissue” value (animal tumor models [2]; up to) of the same compound?
A: 10-25 % of the injected dose

Q: And the “circulating radioactivity associated with the albumin fraction” value (albumin fraction)?
A: 88%

Q: And the “selective retention by tumors” value (animal tumor models [3])?
A: selectively retained by a variety of human and animal tumors

Q: What about the “uptake / retention in tumor” value [4] of the same compound?
A: retained in spontaneous murine lung tumors; also recorded: intense uptake

Q: What about the Uptake (Adrenal H-295) of the same compound?
A: Yes

Q: What about the Uptake (Melanoma) of the same compound?
A: Yes

Q: What about the Uptake (Melanoma A-375) of the same compound?
A: Yes

Q: And the toxicity [5]?
A: no toxicity attributable to the drug substance

Q: What about the Uptake (Hepatocellular Carcinoma) of the same compound?
A: Yes

Q: And the acute toxicity [6, 7]?
A: well tolerated and no acute toxicities were found

Q: What about the toxic effects ([6]; female rabbits, single dose 0.04 mg/kg, Study 32, GLP) of the same compound?
A: No significant toxic effects

Q: And the toxic effects ([6]; male rabbits, single dose 4 mg/kg, Study 28, GLP)?
A: No significant toxic effects

Q: What about the Uptake (SCC1 and 6) of the same compound?
A: Yes
